In US20230028441A1, “NOVEL HETEROARYL-TRIAZOLE COMPOUNDS AS PESTICIDES” (Bayer Aktiengesellschaft, priority 2019, published 2023):
Like-named read-outs stand apart in the source and are kept apart here.

What was measured:
Type in all cases: in vivo
[1] = system: cattle tick larvae (Rhipicephalus microplus), strain Parkhurst, resistant against synthetic pyrethroids; assay: Rhipicephalus (Boophilus) microplus in-vitro contact test, larval cattle tick; conditions: read-out: efficacy (larvae dead or moribund)
Outline: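 Acetone solutions of compound were coated on glass tube walls (900 ppm giving 5 μg/cm^2) and dried. 20–50 pyrethroid-resistant Parkhurst larvae were held per tube at 27° C and 85% relative humidity; after 48 h negative geotaxis scored efficacy as percent larvae dead or moribund.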

[2] = system: adult cat fleas (Ctenocephalides felis); assay: Ctenocephalides felis in-vitro contact test, adult cat flea; conditions: 5 μg/cm^2 (=500 g/ha), after 48 hours, read-out: efficacy (fleas dead or moribund)
Outline: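 Acetone solutions were coated on glass tube walls, 900 ppm giving 5 μg/cm^2. After drying, 5-10 adult fleas per tube were held 48 h at room temperature. Fleas unable to climb away from a 45-50 °C heating plate within 5 min were scored dead or moribund, as % efficacy.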

[3] = system: larvae of the banded cucumber beetle (Diabrotica balteata); assay: Diabrotica balteata spray test; conditions: 168 h, read-out: efficacy (seedlings grown up)
Outline: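 Germinated wheat seedlings (5 per well, agar plates) sprayed with compound in acetone/DMF diluted in water with 1000 ppm emulsifier, then infested with 10-20 larvae per unit. Efficacy scored after 7 days as % seedling growth relative to untreated, uninfested control (100% = normal growth, 0% = none).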

[4] = system: adult brown dog ticks (Rhipicephalus sanguineus); assay: Rhipicephalus sanguineus in-vitro contact test with adult brown dog ticks; conditions: after 48 hours, read-out: efficacy (ticks dead or moribund); for pest or weed control at 5 µg/cm2, 500 g/ha: 5 μg/cm^2 (=500 g/ha); for pest or weed control at 1 µg/cm2, 100 g/ha: 1 μg/cm^2 (=100 g/ha)
Outline: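 Compound in acetone coated onto glass tube inner walls at 900 ppm, giving 5 μg/cm^2. Adult ticks (5-10 per tube) held at room temperature for 48 h, then placed on a 45-50° C. heating plate for up to 5 min. Ticks unable to climb away counted dead or moribund; efficacy given as % dead/moribund.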

[5] = system: caterpillars of the fall army worm (Spodoptera frugiperda); assay: Spodoptera frugiperda spray test (cotton leaves); conditions: 168 h
Procedure: Solvent: 14 parts by weight of dimethylformamide
Emulsifier: alkylaryl polyglycol ether
To produce a suitable preparation of active compound, 1 part by weight of active compound is mixed with the stated amount of solvent and is diluted with water, containing an emulsifier concentration of 1000 ppm, to the desired concentration. Further test concentrations are prepared by dilution with emulsifier containing water. Ammonium salt and/or penetration enhancer in a dosage of 1000 ppm are added to the desired concentration if necessary.
Cotton leaves (Gossypium hirsutum) are treated by being sprayed with the preparation of the active compound of the desired concentration and are infested with caterpillars of the fall army worm (Spodoptera frugiperda).
After 7 days mortality in % is determined. 100% means all the caterpillars have been killed and 0% means none of the caterpillars have been killed.

[6] = system: fall armyworm larvae (Spodoptera frugiperda); assay: Spodoptera frugiperda spray test (maize leaf sections); conditions: 168 h
Outline: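 Maize leaf sections were sprayed with compound formulated in acetone/DMF and diluted in water containing 1000 ppm emulsifier. Once dry, sections were infested with fall armyworm larvae. Mortality (%) was scored after 7 days.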

[7] = system: adult unfed cat fleas (Ctenocephalides felis); assay: Ctenocephalides felis oral test; conditions: 48 h
Outline: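 About 20 adult unfed Ctenocephalides felis fed through parafilm on cattle blood dosed with compound (DMSO stock diluted in blood), blood chamber at 37°C, fleas at room temperature. Mortality (%) scored after 2 days; 100% means all fleas killed.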

[8] = system: adult engorged female ticks (Rhipicephalus microplus); assay: Rhipicephalus (Boophilus) microplus injection test; conditions: 168 h, read-out: efficacy (infertile eggs)
Outline: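 Compound was dissolved in DMSO at 10 mg per 0.5 mL and diluted with DMSO to the test concentration. Five engorged adult females received a 1 μL abdominal injection and were kept in a climate chamber. After 7 days, fertile egg deposition was scored, with unclear eggs held until hatching at about 42 days; 100% efficacy means all eggs were infertile.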

[9] = system: green peach aphid (Myzus persicae); assay: Myzus persicae oral test; conditions: 120 h
Outline: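 Compound was dissolved at 1 part by weight in 100 parts acetone, then diluted with water to test concentration and combined with IPL41 insect medium (33%+15% sugar). A mixed aphid population fed on this through a parafilm seal, and mortality (%) was scored after 5 days.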

[10] = system: larvae of the southern green stink bug (Nezara viridula); assay: Nezara viridula spray test; conditions: in Hordeum vulgare, 96 h
Outline: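 Barley plants infested with Nezara viridula larvae were sprayed with compound in acetone/dimethylformamide, diluted in water containing 1000 ppm alkylarylpolyglycol ether emulsifier. Mortality (%) was scored after 4 days; 100% means all stink bugs killed.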

[11] = system: brown planthopper (Nilaparvata lugens); assay: Nilaparvata lugens spray test; conditions: in Oryza sativa, 96 h
Outline: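 Rice plants (Oryza sativa) sprayed with compound in acetone/DMF diluted in water containing 1000 ppm alkylarylpolyglycol ether emulsifier, then infested with planthoppers. Mortality % scored after 4 days (100% = all killed, 0% = none killed).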

[12] = 5 μg/cm^2 (=500 g/ha), after 48 hours
[13] = 100 g/ha (=32 μg/well), after 7 days, wheat seeds
[14] = 100 ppm in cattle blood, after 2 days
[15] = 4 μg/animal, egg deposition after 7 days
[16] = 500 g/ha (=160 μg/well), after 7 days, wheat seeds
[17] = 20 μg/animal, egg deposition after 7 days

Compound	pest or weed control at 5 µg/cm2 [1, 12] [%]	pest or weed control at 5 µg/cm2 [2] [%]	pest or weed control at 32 µg/disc, 100 g/ha [3, 13] [%]	pest or weed control at 5 µg/cm2, 500 g/ha [4] [%]	mortality at 20 ppm [5] [%]	mortality at 100 g/ha [6] [%]	mortality at 100 ppm [7, 14] [%]	pest or weed control at 0.004 mg [8, 15] [%]	mortality at 4 ppm [9] [%]	mortality at 500 g/ha [10] [%]	also measured
CNc1nc(C(C)NC(=O)c2cc(Cl)cc(OC(F)(F)F)c2)n(-c2ncccn2)n1 (centres unmarked) [I-099]	90	100	100	80	100	100	100	100	100		
COC(=O)Nc1nc(C(C)NC(=O)c2cc(Cl)cc(C(F)(F)F)c2)n(-c2ccc(Cl)cn2)n1 (racemic) [I-010, methyl N-[1-(5-chloro-2-pyridyl)-5-[1-[[3-chloro-5-(trifluoromethyl)benzoyl]amino]ethyl]-1,2,4-triazol-3-yl]carbamate]				100	80	100			90		pest or weed control at 5 µg/cm2 ([1]; 48 h): 100%; pest or weed control at 32 µg/disc, 100 g/ha [3]: 100%; pest or weed control at 160 µg/disc, 500 g/ha [3]: 100%; pest or weed control at 1 µg/cm2, 100 g/ha [4]: 100%; mortality at 500 g/ha [6]: 100%; mortality at 100 ppm [7]: 100%; pest or weed control at 0.004 mg [8]: 100%; pest or weed control at 0.02 mg [8]: 100%
C[C@H](NC(=O)c1cc(OC(F)(F)F)cc(C2CC2)c1)c1nc(N)nn1-c1ccc(C#N)cn1 [I-154]	100	100	100	80	100	100				100	pest or weed control at 1 µg/cm2, 100 g/ha [4]: 80%
CC(=O)Nc1nc(C(C)NC(=O)c2cc(Cl)cc(C(F)(F)F)c2)n(-c2ccc(Cl)cn2)n1 (racemic) [I-011, N-[1-[5-acetamido-2-(5-chloro-2-pyridyl)-1,2,4-triazol-3-yl]ethyl]-3-chloro-5-(trifluoromethyl)benzamide]	100		100	80	100	100	100	100	100	90	pest or weed control at 160 µg/disc, 500 g/ha [3, 16]: 100%; mortality at 500 g/ha [6]: 100%; pest or weed control at 0.02 mg [8, 17]: 100%
CC(NC(=O)c1cc(Cl)cc(C(F)(F)F)c1)c1nc(NC(=O)C2CC2(F)F)nn1-c1ccc(Cl)cn1 (centres unmarked) [I-018]	100	100	100		100		100	100			pest or weed control at 160 µg/disc, 500 g/ha [3, 16]: 100%; pest or weed control at 0.02 mg [8, 17]: 100%
CC(NC(=O)c1cc(Br)cc(C(F)(F)F)c1)c1nc(N)nn1-c1ccc(C#N)cn1 (centres unmarked) [I-117]	100		100		100	100	100	100	100	100	
CC(NC(=O)c1cc(Cl)cc(OC(F)(F)F)c1)c1nc(N)nn1-c1ccc(C#N)cn1 (centres unmarked) [I-118]	100	90	100		100	100	100	100	100	100	
CC(NC(=O)c1cc(Br)cc(Br)c1)c1nc(N)nn1-c1ccc(C#N)cn1 (centres unmarked) [I-114]	100		100		100	100			90		
CNc1nc([C@H](C)NC(=O)c2cc(Br)cc(C(F)(F)F)c2)n(-c2ncccn2)n1 [I-136]	100		100	100	100	100				90	mortality at 500 g/ha [11]: 100%; pest or weed control at 1 µg/cm2, 100 g/ha [4]: 100%
CSc1nc(C(C)NC(=O)c2cc(Cl)cc(C(F)(F)F)c2)n(-c2ccc(Cl)cn2)n1 (centres unmarked) [I-062]	100	100	100	100	100			100		100	mortality at 100 g/ha [10]: 100%; pest or weed control at 160 µg/disc, 500 g/ha [3, 16]: 100%; mortality at 500 g/ha [6]: 100%; pest or weed control at 0.02 mg [8, 17]: 100%
CC(NC(=O)c1cc(F)cc(C#N)c1)c1nc(N)nn1-c1ncccn1 (centres unmarked) [I-105]	100	100	100		100	100	100	100	100		
